Data reported in patent US20080206287A1, “Use of cyclosporin A to sensitize resistant cancer cells to death receptor ligands” (priority 2006, published 2008).
Entries after “also recorded” stand apart in the source; their conditions may differ. Residues, ends and D or L forms follow the SMILES beside them. *: point of attachment. Cbz = O=C(OCc1ccccc1)*; CH2F = FC*

Assays:
PPC-1 cells [1] = conditions: positive control, Kim et al. 2002; cited from earlier work
FLIP [2] = conditions: Kim et al. 2002; cited from earlier work
PPC-1 cells [3] = assay: Extrinsic (CH-11, TRAIL) versus intrinsic (VP-16, STS) pathway stimuli, MTT; assay type: cell-based; conditions: MTT 24 hours
Description: Identification of small molecules that specifically sensitize to extrinsic pathway. The nine compounds identified using anti-FAS antibody screening theoretically could non-specifically sensitize tumor cells to apoptotic stimuli or they could be selective for the extrinsic pathway. To distinguish between these two possibilities, the effects of compounds on apoptosis induced by extrinsic pathway stimuli (e.g., CH-11 antibody; TRAIL) were compared to the effects on the intrinsic pathway stimuli (e.g., etoposide [VP16]; staurosporine [STS]). Accordingly, PPC-1 cells were treated with various concentrations of compounds with or without CH-11, TRAIL, VP-16, or STS, and 24 hours later, cell viability was measured by MTT assays.

PPC-1 cells [4] = assay: PPC-1 cell viability (MTT) with or without CH-11 anti-FAS antibody; assay type: cell-based; conditions: Homo sapiens, PPC-1, read-out: EC50 as a FAS-sensitizer in PPC1 cells
Procedure: High throughput screening. Screens were performed using a fully integrated, programmable robotic liquid handling system (Biomek® FX, Beckman-Coulter Inc., Fullerton, Calif.), with integrated plate reader (LJL analyst HT 96-384, Sunnyvale, Calif.) and environmentally controlled plate carousel set at 37° C. and 5% CO2:95% air. PPC-1 cells (1×10^4) were seeded overnight into 96 well, flat-bottom plates (Costar, Cambridge, Mass.) in 100 μL of medium containing 2.5% FCS. The next day, aliquots from the 50,000 compound Diversa library were added at a final concentration of 7.5 μg/mL (about 25 μM) in a final concentration of 0.5% (v:v) dimethylsulfoxide (DMSO). CH-11 antibody (100 ng/mL) was then added, and the cells were incubated for 24 hours before assessing cell viability by a 3-(4,5-Dimethylthiazol-2-yl)-2,5-diphenyltetrazolium Bromide (MTT) dye reduction assay (Sigma).
(§1) Cell death assays. Cell viability was measured by MTT and MTS assays, essentially as described in Schimmer et al. (Cancer Cell 5:25-35, 2004). Absorbance readings were plotted against a standard curve to derive the corresponding cell number, and cell viability was expressed as a percentage relative to untreated cells. Apoptosis was measured by flow cytometric analysis of Annexin V surface expression after staining cells with FITC-anti-Annexin V and propidium iodide (PI) (Biovision, Mountain View, Calif.), as described in Pedersen et al. (Blood 100:2965-72, 2002).
Statistics. Cytotoxicity induced by compounds used in combination with conventional agents (e.g., CH-11, TRAIL, VP-16 and staurosporine) was evaluated for evidence of synergy toxicity by comparing the slopes of the dose-response curves. If the combination of the potential sensitizing compound with the conventional agent increased the slope of the dose-response curve compared to the slopes of either the sensitizer or the conventional agent alone, then the interaction was considered synergistic. […] Statistical significance was defined as a p<0.01, using two-sided tests. Synergy was confirmed by performing multiple drug dose-effect calculations using the Median Effect methods as described in Chou (“The Median-Effect Principle and the Combination Index for Quantitation of Synergism and Antagonism.” In: D. C. Rideout and T. C. Chou (eds.), Synergism and Antagonism in Chemotherapy, pp. 61-102: Academic Press, Inc., 1991).
Identification of small molecule FAS sensitizers. Resistance to death receptor ligands may permit malignant cells to escape immune surveillance and limit the clinical efficacy of recombinant death receptor ligands such as TRAIL. To identify small molecules that restore sensitivity to death receptor ligands, a cell-based high throughput screen was performed using the FAS and TRAIL-resistant prostate cancer cell line PPC-1 and a commercially available 50,000 compound library. The screens were performed in 96 well plates, to which compounds were added at 7.5 μg/ml (about 25 μM), followed by agonistic anti-FAS monoclonal antibody CH-11 (100 ng/mL). Cell viability was measured 24 hours later by MTT assay. […] The coefficient of variation (CV) for PPC-1 cells treated with CH-11 alone was determined to be 5%, based on 90 replicate determinations. A 50% decrease in cell viability was used as a cut-off for scoring hits.
From the primary screen of 50,000 compounds, 313 reproducible hits were obtained. To determine whether any of the 313 compounds were toxic molecules as opposed to FAS-sensitizers, the 313 compounds were evaluated in secondary screens where PPC-1 cells were treated with increasing concentrations of the compounds in the presence or absence of CH-11 antibody. Through these secondary screens, nine sensitizers were identified that increased CH-11-mediated killing above the cell death produced by treatment of the cells with the compound alone (Table 1). […]

FLIP [5] = assay: FLIP protein immunoblot; assay type: cell-based, human
Procedure: Immunoblot analysis. Protein extracts were obtained by washing cells with phosphate-buffered saline (PBS) [pH 7.4] and suspending the cells in lysis buffer [10 mM Tris (pH 7.4), 150 mM NaCl, 0.1% Triton X-100, 0.5% sodium deoxycholate, and 5 mM EDTA] containing protease inhibitors (Complete tablets; Roche, Indianapolis, Ind.). Immunoblot assays were performed as described in Carter et al. (Blood 105:4043-4050, 2005). Briefly, equal amounts of protein as determined by a Bradford assay (Bradford, Anal. Biochem. 72:248-54, 1976) were subjected to SDS-PAGE (4-20% gradient gels from ISC BioExpress, Kaysville, Utah), followed by transfer to nitrocellulose membranes. Membranes were incubated with mouse monoclonal anti-human FLIP (NF6 clone) (1:500 v/v) (Alexis, San Diego, Calif.), 1:1,000 (v/v) anti-aspase-8 clone 5F7 (Upstate) and mouse monoclonal anti-tubulin (1:2000 v/v) (Sigma Inc). Secondary antibodies consisted of horseradish peroxidase-conjugated goat anti-rabbit IgG or goat anti-mouse IgG (Bio-Rad, Hercules, Calif.). Detection was performed by the enhanced chemiluminescence method (Pierce, Rockford, Ill.).
Effects of sensitizing compounds on FLIP protein. Since FAS-sensitizing compounds 6094911 and 5809354 modulate the extrinsic pathway downstream of TNF-family death receptors but upstream of effector caspases, the effects of those compounds on expression of FLIP, an intracellular antiapoptotic protein that binds caspases-8 and -10 and is capable of suppressing death receptor signaling at a proximal point within the extrinsic pathway, was examined. For these experiments, PPC-1 cells were treated with sensitizing compounds in the presence or absence of CH-11 antibody, then cell lysates were prepared 24 hours later, and analyzed by immunoblotting for FLIP.
The levels of the short isoform of FLIP were less than 5% of total FLIP protein as measured by immunoblotting and quantitative densitometry. Therefore, given the very low levels of the short isoform, the analysis was limited to the effects of the compounds on the long isoform of FLIP.

PPC-1 cells [6] = assay: Annexin V apoptosis with CH-11, sensitizers and caspase inhibitors; assay type: cell-based; conditions: CH-11 and sensitizers such as 6094911, 5809354, 5569100, 12 hours
Procedure: as §1
Caspase-dependent induction of apoptosis by combination treatment with CH-11 and FAS-sensitizing compounds. To further assess the mechanism of the 8 compounds that selectively modulated tumor sensitivity to extrinsic pathway stimuli, the effects of […]-Val-Ala-Asp-fluoromethylketone (zVAD-fmk), a broad-spectrum irreversible inhibitor of caspase-family proteases (Enzyme Systems, Dublin, Calif.) was tested. Accordingly, PPC-1 cells were treated with CH-11 and sensitizers such as 6094911, 5809354, and 5569100 with and without zVAD-fmk (100 μM) for 12 hours. Apoptosis was then measured by Annexin V staining.

SMILES: CC1(C)CC[C@]2(C(=O)O)CC[C@]3(C)[C@H](C(=O)C=C4[C@@]5(C)C=C(C#N)C(=O)C(C)(C)[C@@H]5CC[C@]43C)[C@@H]2C1 [CDDO, 2-cyano-3,12-dioxooleana-1,9-dien-28-oic acid]
- sensitization of PPC-1 cells to TNF-family death receptors and ligands (PPC-1 cells [1]): sensitize PPC-1 cells to TNF-family death receptors and ligands
- FLIP protein levels (FLIP [2]): reduce FLIP protein levels; also recorded: reduces FLIP expression

SMILES: C[n+]1ccn2c3c(c4cc(C5CCCCC5)ccc42)CCCc31.[I-] [compound 5362611, 8-Cyclohexyl-3-methyl-5,6-dihydro-4H-pyrazino[3,2,1-jk]carbazol-3-ium; iodide]
- sensitization to extrinsic (CH-11, TRAIL) and intrinsic (VP-16, STS) pathway stimuli (PPC-1 cells [3]): sensitized to both the death receptor (extrinsic) and mitochondrial pathway (intrinsic) stimuli

SMILES: Cn1c(=N)n(CC(=O)c2cc(C(C)(C)C)c(O)c(C(C)(C)C)c2)c2ccccc21 [compound 5541203, 1-(3,5-Di-tert-butyl-4-hydroxy-phenyl)-2-(2-imino-3-methyl-2,3-dihydro-benzoimidazol-1-yl)-ethanone]
- EC50 (PPC-1 cells [4]): 25.7 µM
- levels of FLIP protein (long isoform) (FLIP [5]; PPC-1 cells, with or without CH-11, 24 hours, immunoblot): had little effect

SMILES: COC(=O)C[C@H](NC(=O)[C@H](C)NC(=O)[C@@H](NC(=O)OCc1ccccc1)C(C)C)C(=O)CF [zVAD-fmk, reference compound] (Cbz-Val-Ala-Asp(OMe)-CH2F)
- effect of caspase inhibitor on apoptosis by CH-11 plus sensitizers (PPC-1 cells [6]): blocked sensitization to CH-11
- effect of caspase inhibitor pre-treatment on reductions in FLIP protein (FLIP [5]; pre-treatment before 5809354 or 5569100): did not prevent reductions in FLIP protein
